{"source": "PubChem BioAssay AID2060884", "about": "(Molecular Pharmacology Branch, DTP, NCI, 2025)", "system": "NCI-H929 complex spheroids, viability % test/control", "assay": "Anticancer human tumor NCI-H929 cell line growth inhibition [RAS];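 on all read-outs here: compound exposure lasted seven days before viability was read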;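 on viability, T/C: 100% = DMSO vehicle control viability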", "settings": "for IC50: curve of first compound; for viability, T/C: stronger effect = lower value", "how_it_was_run": "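Agents were tested in combination matrices in half-log decrements from a top concentration at or near clinical Cmax (10 microM if undetermined). Targets were multi-cell spheroids of tumour lines plus HUVEC and MSC stromal cells.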", "data": [{"smiles": "CC(Nc1ccc2c(c1)OCCn1cc(N3C(=O)OCC3C(F)F)nc1-2)C(N)=O", "note": "(configuration not stated) + CCn1c(-c2cc(N3CCN(C)CC3)cnc2C(C)OC)c2c3cc(ccc31)-c1csc(n1)CC(NC(=O)C1CC1C)C(=O)N1CCCC(N1)C(=O)OCC(C)(C)C2", "values": [{"measurement": "IC50", "setting": "second compound 0.000949 µM", "result": 5990, "unit": "nM"}, {"measurement": "IC50", "setting": "second compound 0.003 µM", "result": 5260, "unit": "nM"}, {"measurement": "IC50", "setting": "second compound 0.00949 µM", "result": 1470, "unit": "nM"}, {"measurement": "IC50", "setting": "second compound 0.03 µM", "result": "< 31.6", "unit": "nM"}, {"measurement": "IC50", "setting": "second compound 0.0949 µM", "result": "< 31.6", "unit": "nM"}, {"measurement": "IC50", "setting": "second compound 0.3 µM", "result": "< 31.6", "unit": "nM"}, {"measurement": "viability, T/C", "setting": "second compound 0.000949 µM, first compound 0.0316 µM", "result": 100, "unit": "%"}, {"measurement": "viability, T/C", "setting": "second compound 0.000949 µM, first compound 0.1 µM", "result": 97.5, "unit": "%"}, {"measurement": "viability, T/C", "setting": "second compound 0.000949 µM, first compound 0.316 µM", "result": 109, "unit": "%"}, {"measurement": "viability, T/C", "setting": "second compound 0.000949 µM, first compound 1 µM", "result": 97.9, "unit": "%"}, {"measurement": "viability, T/C", "setting": "second compound 0.000949 µM, first compound 3.16 µM", "result": 86.2, "unit": "%"}, {"measurement": "viability, T/C", "setting": "second compound 0.000949 µM, first compound 10 µM", "result": 20.9, "unit": "%"}, {"measurement": "viability, T/C", "setting": "second compound 0.003 µM, first compound 0.0316 µM", "result": 94.3, "unit": "%"}, {"measurement": "viability, T/C", "setting": "second compound 0.003 µM, first compound 0.1 µM", "result": 103, "unit": "%"}, {"measurement": "viability, T/C", "setting": "second compound 0.003 µM, first compound 0.316 µM", "result": 107, "unit": "%"}, {"measurement": "viability, T/C", "setting": "second compound 0.003 µM, first compound 1 µM", "result": 102, "unit": "%"}, {"measurement": "viability, T/C", "setting": "second compound 0.003 µM, first compound 3.16 µM", "result": 78.5, "unit": "%"}, {"measurement": "viability, T/C", "setting": "second compound 0.003 µM, first compound 10 µM", "result": 14.2, "unit": "%"}, {"measurement": "viability, T/C", "setting": "second compound 0.00949 µM, first compound 0.0316 µM", "result": 110, "unit": "%"}, {"measurement": "viability, T/C", "setting": "second compound 0.00949 µM, first compound 0.1 µM", "result": 114, "unit": "%"}, {"measurement": "viability, T/C", "setting": "second compound 0.00949 µM, first compound 0.316 µM", "result": 102, "unit": "%"}, {"measurement": "viability, T/C", "setting": "second compound 0.00949 µM, first compound 1 µM", "result": 61.2, "unit": "%"}, {"measurement": "viability, T/C", "setting": "second compound 0.00949 µM, first compound 3.16 µM", "result": 24.8, "unit": "%"}, {"measurement": "viability, T/C", "setting": "second compound 0.00949 µM, first compound 10 µM", "result": 2.76, "unit": "%"}, {"measurement": "viability, T/C", "setting": "second compound 0.03 µM, first compound 0.0316 µM", "result": 32.1, "unit": "%"}, {"measurement": "viability, T/C", "setting": "second compound 0.03 µM, first compound 0.1 µM", "result": 9.9, "unit": "%"}, {"measurement": "viability, T/C", "setting": "second compound 0.03 µM, first compound 0.316 µM", "result": 4.54, "unit": "%"}, {"measurement": "viability, T/C", "setting": "second compound 0.03 µM, first compound 1 µM", "result": 2.25, "unit": "%"}, {"measurement": "viability, T/C", "setting": "second compound 0.03 µM, first compound 3.16 µM", "result": 0.96, "unit": "%"}, {"measurement": "viability, T/C", "setting": "second compound 0.03 µM, first compound 10 µM", "result": 0.2, "unit": "%"}, {"measurement": "viability, T/C", "setting": "second compound 0.0949 µM, first compound 0.0316 µM", "result": 1.56, "unit": "%"}, {"measurement": "viability, T/C", "setting": "second compound 0.0949 µM, first compound 0.1 µM", "result": 0.81, "unit": "%"}, {"measurement": "viability, T/C", "setting": "second compound 0.0949 µM, first compound 0.316 µM", "result": 0.54, "unit": "%"}, {"measurement": "viability, T/C", "setting": "second compound 0.0949 µM, first compound 1 µM", "result": 0.47, "unit": "%"}, {"measurement": "viability, T/C", "setting": "second compound 0.0949 µM, first compound 3.16 µM", "result": 0.37, "unit": "%"}, {"measurement": "viability, T/C", "setting": "second compound 0.0949 µM, first compound 10 µM", "result": 0.1, "unit": "%"}, {"measurement": "viability, T/C", "setting": "second compound 0.3 µM, first compound 0.0316 µM", "result": 0.89, "unit": "%"}, {"measurement": "viability, T/C", "setting": "second compound 0.3 µM, first compound 0.1 µM", "result": 0.73, "unit": "%"}, {"measurement": "viability, T/C", "setting": "second compound 0.3 µM, first compound 0.316 µM", "result": 0.48, "unit": "%"}, {"measurement": "viability, T/C", "setting": "second compound 0.3 µM, first compound 1 µM", "result": 0.29, "unit": "%"}, {"measurement": "viability, T/C", "setting": "second compound 0.3 µM, first compound 3.16 µM", "result": 0.33, "unit": "%"}, {"measurement": "viability, T/C", "setting": "second compound 0.3 µM, first compound 10 µM", "result": 0.12, "unit": "%"}]}]}
